Results published in US11708344B2, “Flavone derivatives for the treatment and prophylaxis of hepatitis B virus disease” (Hoffmann-La Roche Inc., priority 2018, dated 2023).
pIC50: −log10 of the molar value.

Legend:
[1] = tested on: HBeAg (surrogate marker for cccDNA) in HepDES19 cells; assay: Engineered HepDES19 primary screen assay (HBeAg ELISA); assay type: cell-based, HBV; settings: Hepatitis B virus, HepDES19, 120 h, read-out: IC50 (HBeAg level, HepDES19 primary screen assay), HepDES19 cells, 5 days compound incubation, HBeAg ELISA
Summary of the method: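 IC50 values come from 4-parameter logistic fits of HBeAg ELISA signal, the cccDNA surrogate, with CCK-8 run in parallel for viability. Compounds at half-log dilutions with 1% DMSO were applied for 5 days at 37 °C to HepDES19 cells previously cultured 8 days without Tet.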

[2] = tested on: HBsAg in HBV-infected PHH; assay: Cryopreserved primary human hepatocytes (PHH) HBV infection assay, extracellular HBsAg (CLIA); assay type: cell-based; settings: Hepatitis B virus, Hepatocyte, 216 h, read-out: HBsAg IC50, Cryopreserved PHH infected with HBV, 9 days post-compound treatment, extracellular HBsAg
Summary of the method: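 Cryopreserved PHH were infected with 5.8×10^6 HBV genome equivalents in medium with 4% PEG8000 and 1% DMSO. After 9 days of treatment, extracellular HBsAg was measured by CLIA, and IC50 was derived from a 4-parameter logistic fit.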

[3] = Human microsome stability assay; assay type: in vitro ADME; settings: human liver microsomes, 1 μM test compound, 0.5 mg/mL microsomal protein, 37° C., pH 7.4, 0-30 minutes
Summary of the method: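 Parent compound remaining was measured by LC-MS/MS at 0, 3, 6, 9, 15 and 30 min, following ACN quench. Reactions held 1 μM compound and 0.5 mg/mL human liver microsomal protein in pH 7.4 phosphate buffer at 37 °C, started by NADPH regeneration (1 mM NADP, 1 mM MgCl2); controls lacked NADPH.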

Structure (SMILES)	pIC50 [1]	pIC50 [2]	Clearance of Human microsome [3] [mL/min/kg]
COc1cc(-c2cc(=O)c3cccc(Cl)c3o2)c(OCCCOCC(=O)O)cc1Cl [Example C016, 2-[3-[5-chloro-2-(8-chloro-4-oxo-chromen-2-yl)-4-methoxy-phenoxy]propoxy]acetic acid]	5.61	5.15	6.15
Cc1cc(-c2cc(=O)c3cccc(Cl)c3o2)c(OCCCC(=O)O)cc1Cl [Example A057, 4-[5-chloro-2-(8-chloro-4-oxo-chromen-2-yl)-4-methyl-phenoxy]butanoic acid]	5.88	5.01	6.15
Cc1cc(-c2cc(=O)c3cccc(Cl)c3o2)c(OCCC(=O)O)cc1C(F)(F)F [Example A044, 3-[2-(8-chloro-4-oxo-chromen-2-yl)-4-methyl-5-(trifluoromethyl)phenoxy]propanoic acid]	5.60	5.75	6.15
O=c1cc(-c2ccccc2OCCO[C@H]2C[C@H](C(=O)O)C2)oc2c(Cl)cc(F)cc12 [Example C036-B, Trans-3-[2-[2-(8-chloro-6-fluoro-4-oxo-chromen-2-yl)phenoxy]ethoxy]cyclobutanecarboxylic acid]	6.11	5.25	6.15
O=c1cc(-c2ccccc2O[C@H]2C[C@H](C(=O)O)C2)oc2c(Cl)cccc12 [Example B002-B, trans-3-[2-(8-chloro-4-oxo-chromen-2-yl)phenoxy]cyclobutanecarboxylic acid]	6.95	5.47	6.15
O=C(O)C1CC(Oc2cc(OC(F)(F)F)c(Br)cc2-c2cc(=O)c3cccc(Cl)c3o2)C1 (stereo not drawn) [Example B007, 3-[4-bromo-2-(8-chloro-4-oxo-chromen-2-yl)-5-(trifluoromethoxy)phenoxy]cyclobutanecarboxylic acid]	5.64	5.65	6.15
COc1cc(OCCO[C@H]2C[C@@H](C(=O)NS(=O)(=O)C3CC3)C2)c(-c2cc(=O)c3cccc(Cl)c3o2)cc1OC [Example C119, Cis-3-[2-[2-(8-chloro-4-oxo-chromen-2-yl)-4,5-dimethoxy-phenoxy]ethoxy]-N-cyclopropylsulfonyl-cyclobutanecarboxamide]	5.46	5.14	6.39
O=c1cc(-c2ccccc2OCCO[C@H]2C[C@@H](C(=O)O)C2)oc2c(Cl)cccc12 [Example C025-A, Cis-3-[2-[2-(8-chloro-4-oxo-chromen-2-yl)phenoxy]ethoxy]cyclobutanecarboxylic acid]	6.72	5.59	6.15
O=C(O)COCCOc1cc(Br)ccc1-c1cc(=O)c2cccc(Cl)c2o1 [Example C006, 2-[2-[5-bromo-2-(8-chloro-4-oxo-chromen-2-yl)phenoxy]ethoxy]acetic acid]	5.90	5.43	6.15
Cc1ccc(-c2cc(=O)c3cccc(Cl)c3o2)c(O[C@H]2C[C@@H](C(=O)NS(=O)(=O)C3CC3)C2)c1 [Example B052-A, Cis-3-[2-(8-chloro-4-oxo-chromen-2-yl)-5-methyl-phenoxy]-N-cyclopropylsulfonyl-cyclobutanecarboxamide]	4.97	5.07	6.15
COc1cc(O[C@H]2C[C@H](C(=O)NS(C)(=O)=O)C2)c(-c2cc(=O)c3cccc(Cl)c3o2)cc1C [Example B050-B, Trans-3-[2-(8-chloro-4-oxo-chromen-2-yl)-5-methoxy-4-methyl-phenoxy]-N-methylsulfonyl-cyclobutanecarboxamide]	5.22	5.02	7.69
O=c1cc(-c2cc(F)c(Br)cc2OCCO[C@H]2C[C@@H](C(=O)O)C2)oc2c(Cl)cccc12 [Example C044-A, Cis-3-[2-[5-bromo-2-(8-chloro-4-oxo-chromen-2-yl)-4-fluoro-phenoxy]ethoxy]cyclobutanecarboxylic acid]	5.70	5.02	6.15
O=c1cc(-c2cc3c(cc2OCCO[C@H]2C[C@H](C(=O)O)C2)OCO3)oc2c(Cl)cccc12 [Example C043-B, Trans-3-[2-[[6-(8-chloro-4-oxo-chromen-2-yl)-1,3-benzodioxo1-5-yl]oxy]ethoxy]cyclobutanecarboxylic acid]	5.03	5.28	7.72
CS(=O)(=O)NC(=O)COCCOc1cc(C(F)(F)F)ccc1-c1cc(=O)c2cccc(Cl)c2o1 [Example C120, 2-[2-[2-(8-chloro-4-oxo-chromen-2-yl)-5-(trifluoromethyl)phenoxy]ethoxy]-N-methylsulfonyl-acetamide]	5.98	5.39	6.15
O=C(O)CCCOc1cc(OC(F)(F)F)ccc1-c1cc(=O)c2cccc(Cl)c2o1 [Example A053, 4-[2-(8-chloro-4-oxo-chromen-2-yl)-5-(trifluoromethoxy)phenoxy]butanoic acid]	6.31	5.45	7.66
O=C(O)COCC(O)COc1cc(Br)ccc1-c1cc(=O)c2cccc(Cl)c2o1 (stereo not drawn) [Example C113, 2-[3-[5-bromo-2-(8-chloro-4-oxo-chromen-2-yl)phenoxy]-2-hydroxy-propoxy]acetic acid]	5.89	5.05	6.15
O=C(O)[C@@H]1C[C@H](Oc2cc(Br)ccc2-c2cc(=O)c3cccc(Cl)c3o2)CN1S(=O)(=O)C1CC1 [Example B083, (2S,4S)-4-[5-bromo-2-(8-chloro-4-oxo-chromen-2-yl)phenoxy]-1-cyclopropylsulfonyl-pyrrolidine-2-carboxylic acid]	6.15	5.49	6.15
Cc1ccc(-c2cc(=O)c3cccc(Br)c3o2)c(OCCCOCC(=O)O)c1 [Example C017, 2-[3-[2-(8-bromo-4-oxo-chromen-2-yl)-5-methyl-phenoxy]propoxy]acetic acid]	6.31	5.53	6.15
O=C(O)C1CC(Oc2cc(C(F)(F)F)ccc2-c2cc(=O)c3cccc(Cl)c3o2)C1 (stereo not drawn) [Example B003, 3-[2-(8-chloro-4-oxo-chromen-2-yl)-5-(trifluoromethyl)phenoxy]cyclobutanecarboxylic acid]	6.33	5.36	6.15
COc1cc(-c2cc(=O)c3cccc(Cl)c3o2)c(OCCC(=O)O)cc1C(F)(F)F [Example A043, 3-[2-(8-chloro-4-oxo-chromen-2-yl)-4-methoxy-5-(trifluoromethyl)phenoxy]propanoic acid]	5.65	5.17	6.15
Cc1ccc(-c2cc(=O)c3cccc(Cl)c3o2)c(O[C@H]2C[C@H](C(=O)NS(C)(=O)=O)C2)c1 [Example B051-B, Trans-3-[2-(8-chloro-4-oxo-chromen-2-yl)-5-methyl-phenoxy]-N-methylsulfonyl-cyclobutanecarboxamide]	5.04	5.28	6.97
O=C(O)CCOc1cc(C(F)(F)F)ccc1-c1cc(=O)c2cccc(Cl)c2o1 [Example A001, 3-[2-(8-chloro-4-oxo-chromen-2-yl)-5-(trifluoromethyl)phenoxy]propanoic acid]	5.79	5.92	10.0
O=C(O)C1CC(Oc2cc(OC(F)(F)F)ccc2-c2cc(=O)c3cccc(Cl)c3o2)C1 (stereo not drawn) [Example B005, 3-[2-(8-chloro-4-oxo-chromen-2-yl)-5-(trifluoromethoxy)phenoxy]cyclobutanecarboxylic acid]	6.66	5.16	6.15
O=c1cc(-c2cc(F)ccc2OCCO[C@H]2C[C@H](C(=O)O)C2)oc2c(Cl)cccc12 [Example C033-B, Trans-3-[2-[2-(8-chloro-4-oxo-chromen-2-yl)-4-fluoro-phenoxy]ethoxy]cyclobutanecarboxylic acid]	6.03	5.36	6.15
CCNS(=O)(=O)N[C@@H](COc1cc(C(F)(F)F)ccc1-c1cc(=O)c2cccc(Cl)c2o1)C(=O)O [Example A099, (2S)-3-[2-(8-chloro-4-oxo-chromen-2-yl)-5-(trifluoromethyl)phenoxy]-2-(ethylsulfamoylamino)propanoic acid]	7.18	6.85	9.53
O=c1cc(-c2ccccc2O[C@H]2C[C@@H](C(=O)O)C2)oc2c(Cl)cccc12 [Example B002-A, cis-3-[2-(8-chloro-4-oxo-chromen-2-yl)phenoxy]cyclobutanecarboxylic acid]	6.79	5.69	6.15
